The results in this text go back to patent US12673947B2 (Cytosinlab Therapeutics Co., Ltd., priority 2020, dated 2026).

Assay [1] has as its system MV4;11 cells. The assay can be described thus: MV4;11 in vitro inhibition of proliferation assay (CellTiter-Glo, 72 hours). It is filed as cell-based. The conditions noted are these: IC50 class, read-out: Inhibitory activity of cell proliferation MV4;11. The source says:
Biological Test Example 2: MV4;11 In Vitro Inhibition of Proliferation Assay
The MV4;11 cell lines were purchased from the cell bank of the Chinese Academy of Sciences, IMDM medium (Gibco, catalog number 12440), fetal bovine serum (Gibco, catalog number 10099141C), penicillin-streptomycin antibiotics (Gibco, catalog number 15140122), DMSO (Sigma, catalog number D2650), Celltiter-Glo kit (CTG) (Promega, catalog number G7573), 384-well clear flat-bottom black cell culture plate (Corning, catalog number 3764), D300e digital dispenser (Tecan, catalog number D300e), SpectraMax i3x microplate reader (MOLECULAR DEVICES, catalog number i3x)
MV4;11 cell was cultivated in IMDM, 10% fetal bovine serum, 1% penicillin-streptomycin antibiotics, and cell density was kept less than 1.0*10E6 cells per ml to ensure that it was always in logarithmic growth phase. Cell viability was greater than 95%.
The compounds to be tested was diluted by 3 times from 10 uM with DMSO to 9 concentrations. 60 nl diluted compound was added to the cell culture plate and three duplicates were set up.
The prepared MV4;11 cell suspension was added to the 384-well plate, and 20 microliters of cell suspension was added per well, i.e., each well contained 2000 MV4;11 cells, of which the final concentration of DMSO was 0.3%. The cell culture plate was placed in 37° C. and incubated in a 5% carbon dioxide incubator for 72 hours.
20 μL of Promega CellTiter-Glo reagent was added to per well, and the plate was incubated at room temperature for 10 minutes when the luminescence signals were stable. SpectraMax i3x microplate reader was used to read signals.
The original data was converted into inhibition rate, and the IC50 value (half inhibition concentration) of the compound was determined by fitting the nonlinear four-parameter curve.

In assay [2] the target is T1, FLT3 (Homo sapiens, UniProt P36888).
T1 construct: purchased Carna 08-145
T1 sequence (P36888 27-993): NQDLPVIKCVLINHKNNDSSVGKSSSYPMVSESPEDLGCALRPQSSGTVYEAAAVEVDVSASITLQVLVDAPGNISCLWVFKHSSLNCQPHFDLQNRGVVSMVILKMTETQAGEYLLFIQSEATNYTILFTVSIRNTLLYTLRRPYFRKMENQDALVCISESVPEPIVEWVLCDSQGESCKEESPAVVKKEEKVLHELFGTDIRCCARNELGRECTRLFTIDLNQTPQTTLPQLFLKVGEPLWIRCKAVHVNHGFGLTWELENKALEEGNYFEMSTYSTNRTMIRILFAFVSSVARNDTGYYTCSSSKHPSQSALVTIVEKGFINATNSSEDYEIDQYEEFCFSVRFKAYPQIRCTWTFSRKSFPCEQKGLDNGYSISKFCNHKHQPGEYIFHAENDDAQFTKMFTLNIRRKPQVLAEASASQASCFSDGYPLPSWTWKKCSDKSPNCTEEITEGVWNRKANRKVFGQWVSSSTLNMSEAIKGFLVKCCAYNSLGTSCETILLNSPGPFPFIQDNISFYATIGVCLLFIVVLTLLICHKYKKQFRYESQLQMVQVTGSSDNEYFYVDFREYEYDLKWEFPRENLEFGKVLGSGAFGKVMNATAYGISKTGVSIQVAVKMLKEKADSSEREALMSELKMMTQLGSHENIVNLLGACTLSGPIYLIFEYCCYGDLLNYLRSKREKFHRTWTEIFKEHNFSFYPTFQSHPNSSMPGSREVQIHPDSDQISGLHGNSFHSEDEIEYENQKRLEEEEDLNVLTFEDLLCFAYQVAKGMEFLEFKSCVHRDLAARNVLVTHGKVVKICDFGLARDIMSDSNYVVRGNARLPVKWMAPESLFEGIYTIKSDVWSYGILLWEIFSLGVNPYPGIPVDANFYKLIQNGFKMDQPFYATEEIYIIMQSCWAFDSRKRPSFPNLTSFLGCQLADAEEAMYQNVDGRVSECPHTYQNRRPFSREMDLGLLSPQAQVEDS
Description: FLT3 kinase in vitro inhibitory activity experiment (Caliper mobility shift, conversion rate). It is filed as biochemical. Particulars: IC50 class, read-out: Enzyme activity FLT3. The protocol:
Biological Test Example 1: FLT3 Kinase In Vitro Inhibitory Activity Experiment
Centrifuge (manufacturer: Eppendorf, model: 5430), microplate reader (manufacturer: Perkin Elmer, model: Caliper EZ Reader II), Echo 550 (manufacturer: Labcyte, model: Echo 550)
1. Kinase Reaction Process
• (1) 1×Kinase buffer was prepared. • (2) Preparation of the serial compound dilutions: the initial stock (the concentration of the tested compound was 1 μM) was diluted by 3-fold into 10 concentrations, and was single-well detected. The compounds were series diluted to solutions of 10 different concentration (100-folds final concentration) in 384-well plates. 250 nl of solution was transferred to each well of 384-well plate by Echo550. 100% DMSO (250 nl) was added to negative control wells and positive control wells respectively. • (3) Kinase solution (2.5 times final concentration) was prepared with 1×Kinase buffer. • (4) 10 μL of kinase solution (2.5 times final concentration) was added to compound wells and positive control wells respectively: 1×Kinase buffer (10 μL) was added to the negative control wells. • (5) The solution was centrifuged at 1000 rpm for 30 seconds, shaked and mixed, and incubated at room temperature for 10 minutes. • (6) The mixed solution of ATP and Kinase substrate 2 (25/15 times final concentration) was prepared with 1×Kinase buffer. • (7) 15 μL of mixed solution ATP and Kinase substrate 2 (25/15 times final concentration) was added to initiated the reaction. • (8) 384 well plate was centrifuged at 1000 rpm for 30 seconds, shaked and mixed, then incubated at room temperature for 30 minutes. • (9) Stop solution (30 μL) was added to stop kinase reaction, and the solution was centrifuged at 1000 rpm for 30 seconds, shaked and mixed. • (10) The conversion rate was read with Caliper EZ Reader II. 2. Data Analysis Formula for Calculation
Wherein: Conversion %_sample is the reading of the sample conversion; Conversion %_min: negative control well.

Counter-ions that a name gives are not always drawn. Like-named read-outs stand apart in the source and are kept apart here.

Regarding `CCc1nc2c(N)ncc(-c3cnn(C4CCC(C)(O)CC4)c3)c2nc1N[C@@H]1CC[C@H](O)C1` (single isomer, unassigned) [Compound 285], the IC50 in assay [1] and in assay [2] was not above 10 nM throughout.
Take `CCc1nc2c(N)nccc2nc1NC1CCOCC1` [Compound 1]: the IC50 in assay [1] (Homo sapiens, MV4-11, 72 h) was more than 500 nM; in assay [2], more than 500 nM.
With `CCc1nc2c(N)ncc(Br)c2nc1NC1CCOCC1` [Compound 2, 8-Bromo-3-ethyl-N2-(tetrahydro-2H-pyran-4-yl)pyridino[3,4-b]pyrazine-2,5-diamine], the IC50 in assay [1] (Homo sapiens, MV4-11, 72 h) is more than 500 nM; in assay [2] it was 100 to 500 nM.
On to `CCc1nc2c(N)ncc(-c3cccc(OC)c3)c2nc1NC1CCOCC1` [Compound 3], for which the IC50 in assay [1] (Homo sapiens, MV4-11, 72 h) is more than 500 nM; in assay [2], 10 to 100 nM.
The matching figures for `CCc1nc2c(N)ncc(-c3ccc(N4CCC(N5CCN(C)CC5)CC4)cc3)c2nc1NC1CCOCC1` [Compound 7]: 10 to 100 nM and not above 10 nM.
In the case of `CCc1nc2c(N)ncc(-c3ccc(N4CCC(N5CCN(C)CC5)CC4)c(OC)c3)c2nc1NC1CCOCC1` [Compound 8, 3-ethyl-8-(3-methoxy-4-(4-(4-methylpiperazin-1-yl)piperidin-1-yl)phenyl)-N2-(tetrahydropyran-4-yl)pyrido[3,4-b]pyrazine-2,5-diamine trihydrochloride], the IC50 in assay [1] (Homo sapiens, MV4-11, 72 h) is 10 to 100 nM; in assay [2], not above 10 nM.
On to `CCc1nc2c(Cl)ncc(-c3ccc(N4CCC(N5CCNCC5)CC4)c(OC)c3)c2nc1NC1CCOCC1` [Compound 11], for which the IC50 in assay [1] (Homo sapiens, MV4-11, 72 h) is more than 500 nM; in assay [2], 10 to 100 nM.
The matching figures for `CCc1nc2c(N)ncc(-c3ccc(N4CCC(N5CCN(C)CC5)CC4)c(C)c3)c2nc1NC1CCOCC1` [Compound 13]: 10 to 100 nM and not above 10 nM.
The matching figures for `CCc1nc2c(N)ncc(-c3ccc(N4CCC(N5CCN(C)CC5)CC4)c(F)c3)c2nc1NC1CCOCC1` [Compound 14]: 10 to 100 nM and not above 10 nM.
The matching figures for `CCc1nc2c(N)ncc(-c3ccc(N4CCC(N5CCN(C)CC5)CC4)c(C#N)c3)c2nc1NC1CCOCC1` [Compound 15]: 10 to 100 nM and not above 10 nM.
Turning to `CCc1nc2c(N)ncc(-c3ccc(N4CCC(N5CCN(C)CC5)CC4)c(C(F)(F)F)c3)c2nc1NC1CCOCC1` [Compound 16], the IC50 in assay [1] (Homo sapiens, MV4-11, 72 h) was 10 to 100 nM; in assay [2], not above 10 nM.
Take `CCc1nc2c(N)ncc(-c3ccc(N4CCC(N5CCN(C)CC5)CC4)c(OC(F)(F)F)c3)c2nc1NC1CCOCC1` [Compound 17]: the IC50 in assay [1] (Homo sapiens, MV4-11, 72 h) was 10 to 100 nM; in assay [2] it was not above 10 nM.
The matching figures for `CCc1nc2c(N)ncc(-c3ccc(N4CCC(N5CCN(C)CC5)CC4)nc3)c2nc1NC1CCOCC1` [Compound 21]: 100 to 500 nM and 10 to 100 nM.
The matching figures for `CCc1nc2c(N)ncc(-c3ccc(N4CCC(N5CCN(C)CC5)CC4)c(OC(C)C)c3)c2nc1NC1CCOCC1` [Compound 22]: 10 to 100 nM and not above 10 nM.
The matching figures for `CCc1nc2c(N)ncc(-c3ccc(N4CCC(N5CCN(C)CC5)CC4)c(OCCOC)c3)c2nc1NC1CCOCC1` [Compound 23]: 10 to 100 nM and not above 10 nM.
`COc1cc(-c2cnc(N)c3nc(C)c(NC4CCOCC4)nc23)ccc1N1CCC(N2CCN(C)CC2)CC1` [Compound 26]: the IC50 in assay [1] (Homo sapiens, MV4-11, 72 h) fell in the range of 100 to 500 nM; in assay [2], 10 to 100 nM.
The matching figures for `COc1cc(-c2cnc(N)c3nc(C(C)C)c(NC4CCOCC4)nc23)ccc1N1CCC(N2CCN(C)CC2)CC1` [Compound 27]: 10 to 100 nM and not above 10 nM.
As to `CCCc1nc2c(N)ncc(-c3ccc(N4CCC(N5CCN(C)CC5)CC4)c(OC)c3)c2nc1NC1CCOCC1` [Compound 28], the IC50 was 10 to 100 nM in assay [1] (Homo sapiens, MV4-11, 72 h) and not above 10 nM in assay [2].
The matching figures for `CCc1nc2c(N)ncc(-c3ccc(N4CCC5(CCN(C)CC5)CC4)c(C)c3)c2nc1NC1CCOCC1` [Compound 31]: 10 to 100 nM and not above 10 nM.
For the compound `CCc1nc2c(N)ncc(-c3ccc(N4CCC5(CCN(C)CC5)CC4)c(OC)c3)c2nc1NC1CCOCC1` [Compound 32], the IC50 in assay [1] (Homo sapiens, MV4-11, 72 h) is 10 to 100 nM; in assay [2] it was not above 10 nM.
Take `CCc1nc2c(N)ncc(-c3ccc(N4CCC5(CC4)CN(C)C5)c(OC)c3)c2nc1NC1CCOCC1` [Compound 33]: the IC50 was 10 to 100 nM in assay [1] (Homo sapiens, MV4-11, 72 h) and not above 10 nM in assay [2].
The matching figures for `CCc1nc2c(N)ncc(-c3ccc(N4CCC(N5CCNCC5)CC4)c(OC)c3)c2nc1NC1CCOCC1` [Compound 35]: 10 to 100 nM and not above 10 nM.
The matching figures for `CCc1nc2c(N)ncc(-c3ccc(N4CCN(C5CCN(C)CC5)CC4)c(OC)c3)c2nc1NC1CCOCC1` [Compound 36]: 10 to 100 nM and not above 10 nM.
The matching figures for `CCc1nc2c(N)ncc(-c3ccc(N4CCN(C)CC4)c(OC)c3)c2nc1NC1CCOCC1` [Compound 37]: 10 to 100 nM and not above 10 nM.
For the compound `CCc1nc2c(N)ncc(-c3ccc(N4CCOCC4)c(OC)c3)c2nc1NC1CCOCC1` [Compound 38], the IC50 is 10 to 100 nM in assay [1] (Homo sapiens, MV4-11, 72 h) and not above 10 nM in assay [2].
The matching figures for `CCc1nc2c(N)ncc(-c3ccc(N4CCC(O)CC4)c(OC)c3)c2nc1NC1CCOCC1` [Compound 39]: 10 to 100 nM and not above 10 nM.
As to `CCc1nc2c(N)ncc(-c3cccc(CN4CCC(N5CCN(C)CC5)CC4)c3)c2nc1NC1CCOCC1` [Compound 43, 3-ethyl-8-(3-((4-(4-methylpiperazine-1-yl)piperidine-1-yl)methyl)phenyl)-N2-(tetrahydro-2H-pyran-4-yl)pyrido[3,4-b]pyrazine-2,5-diamine], the IC50 in assay [1] (Homo sapiens, MV4-11, 72 h) lay within 100 to 500 nM; in assay [2], 10 to 100 nM.
The matching figures for `CCc1nc2c(N)ncc(-c3ccc(CN4CCC(N5CCN(C)CC5)CC4)c(OC)c3)c2nc1NC1CCOCC1` [Compound 44]: more than 500 nM and 10 to 100 nM.
